PMC8410836, “Rational design of hyperstable antibacterial peptides for food preservation” (NPJ Science of Food, 2021)
Values after ≈ are worked out from the molar mass of the structure shown. Like-named read-outs stand apart in the source and are kept apart here. Where a SMILES comes first, the peptide text is derived from it. Bridges are numbered along the chain shown (N, C = ends).

Columns and labels:
[1] = tested on: ARPE-19 cells; settings: 16 h, WST-1, Fig. 10a ARPE-19
Description: Cytotoxicity against adult retinal pigmented epithelial (ARPE-19, ATCC CRL2302) cells was measured using WST assay. ARPE-19 cells growing in log phase were seeded into 96-well cell-culture plates at 4 × 10^4 the cells were incubated at 37 °C for 24 h under 5% CO2. Peptide is added with final concentrations of 4–200 µg/mL in Dulbecco’s modified Eagle medium (DMEM/F12). Nutrient mixture media for the treatment group, whereas for the negative control group, media alone was added. The cells were incubated for 16 h at 37 °C under 5% CO2. Ten microliters of WST-1 reagent was added into each well. Plate was incubated at 37 °C for 2 h. Color intensity was measured at 450 nm. Cytotoxicity data presented are averages and standard error from three biological replicate experiments.

[2] = biological target: T1, bovine trypsin (Bos taurus, UniProt P00760); assay: biochemical; settings: SEM
T1 sequence (P00760 24-246): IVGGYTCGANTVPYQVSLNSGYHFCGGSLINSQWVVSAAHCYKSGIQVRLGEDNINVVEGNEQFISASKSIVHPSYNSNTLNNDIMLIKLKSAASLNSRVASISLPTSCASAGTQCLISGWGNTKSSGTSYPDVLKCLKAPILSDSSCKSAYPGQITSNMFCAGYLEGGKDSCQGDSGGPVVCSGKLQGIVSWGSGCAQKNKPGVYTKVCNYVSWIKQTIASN
Description: (§3) The amidase activity of trypsin and its inhibition was assayed using the chromogenic substrate BAPNA at pH 8.2 in 0.05 M Tris-HCl containing 0.02 M CaCl2 at 37 °C. The assay reaction contained 50 µL of trypsin solution (40–50 μg of trypsin in 1 mM HCl), 50 µL of water, and 125 µL of the substrate. The reaction was carried out at 37 °C for 10 min and stopped by addition of 0.25 mL of 30% acetic acid. […] The trypsin solution was incubated with an aliquot of inhibitor for 10 min at 37 °C and reaction started by the addition of 125 µL substrate and incubated at 37 °C for 10 min. […] The effect of varying substrate concentration (BAPNA) on bovine trypsin in the presence of fixed concentrations of peptides was studied. The inhibition constants (Ki) were evaluated using the double reciprocal and Dixon plot of the data[65],[66]. Data presented are averages and standard error calculated from two biological replicate experiments.

[3] = tested on: Staphylococcus aureus ATCC12900
Description: (§1) Four Gram-positive bacteria: Listeria monocytogenes ATCC13932, Bacillus cereus ATCC11778, Staphylococcus aureus ATCC12900, and Micrococcus luteus ATCC4698 and three Gram-negative bacteria: Escherichia coli ATCC11775, Pectobacterium carotovorum MCC2112, and Salmonella typhimurium ATCC9844 were used in this study. These strains were stored at −80 °C in 25% (v/v) glycerol.
(§2) Antimicrobial assays against various bacterial cultures were done using the microdilution broth assay according to the Clinical and Laboratory Standards Institute (CLSI)[64] with some modifications. Mueller-Hinton broth was used to dilute the peptide stock and the bacterial inoculum. Inoculum was prepared from the mid-logarithmic phase culture. Each well of the microtiter plates received aliquots of 100 µL of the media containing different concentrations of peptide ranging from 0.3 to 300 µg/mL. The final concentration of bacteria in the wells was 5 × 10^5 Colony Forming Units (CFU) per mL. Ampicillin was used as positive control. For negative control, ultrapure water was used instead of peptides. Microtiter plates were incubated at 37 °C for 5–6 h with continuous shaking at 130 rpm (M. luteus cells were incubated for 7–8 h). The incubation time used for these assays was initially optimized using a 20-h incubation period. […] MIC assays were performed as three independent experiments in triplicates.

[4] = tested on: Escherichia coli ATCC11775
Description: as §1, §2

[5] = tested on: Micrococcus luteus ATCC4698
Description: as §1, §2

[6] = tested on: Bacillus cereus ATCC11778
Description: as §1, §2

[7] = tested on: Salmonella typhimurium ATCC9844
Description: as §1, §2

[8] = tested on: Pectobacterium carotovorum MCC2112
Description: as §1, §2

[9] = tested on: Listeria monocytogenes ATCC13932
Description: as §1, §2

[10] = tested on: human red blood cells (hRBCs); settings: peptide 0 to 200 μg/mL, 4% hRBCs in PBS, 1 h, 37 °C, absorbance 414 nm, Triton X-100 = 100%; three biological replicates
Description: The hemolytic activity of the peptide was evaluated using human red blood cells (hRBCs). Erythrocytes were separated from 1 mL of blood by centrifugation at 1500 rpm for 10 min. Collected hRBCs were washed three times with PBS, diluted to 4% (v/v) in PBS. Hundred microliters of the hRBCs having peptides ranging from 4 to 200 µg/mL as added into 96-well microtiter plate. The plates were incubated for 1 h at 37 °C without agitation and centrifuged at 1500 rpm for 5 min. Aliquots (100 μL) of the supernatant were transferred to 96-well plates and absorbance was measured at 414 nm. PBS and 1% Triton X-100 were used as control for 0% and 100% hemolysis, respectively. Percentage of hemolysis was calculated as (AT − AC)/(AX − AC) × 100; where AT is the experimental absorbance of treated supernatants, AC is the control absorbance of PBS-treated cell supernatant, and AX is the absorbance of 0.1% (v/v) Triton X-100 lysed cells. Data presented are averages and standard error from three biological replicate experiments.

[11] = tested on: B. cereus spores; type: cell-based, Bacillus cereus; settings: spore suspension, resazurin; repeated at least twice
Description: B. cereus spores were used to test the effect of peptides on spore germination. Spores were prepared by inoculating 3 mL MH media with B. cereus cells and incubating at 30 °C at 180 rpm for 12 h. 2.5 mL of the culture was inoculated into a 250 mL MH media and incubated at 30 °C for 72 h. Furthermore, culture was temperature-treated at 80 °C for 30 min to eliminate the vegetative cells. Spore suspension was stored at 4 °C until further use. Two microliters of spore suspension was used to test the effect of HSEP3 and Nisin on spore germination using resazurin. All experiments were repeated at least twice.

[12] = tested on: B. cereus
Description: as §2
To determine the stability of HSEP3 at higher temperatures, 20 μL of HSEP3 (4 mg/mL) and 20 μL of Nisin in a 0.5 mL tube were autoclaved (for moist heat) at 121 °C for 20 min or heated at 95 °C for 30 min (for dry heat) and cooled to room temperature. Mixture was then used to test the antibacterial activity as previously described. Experiments were repeated in LB media to study the effect of complex media on antibacterial activity. All the experiments were repeated at least two times.

[13] = biological target: T1, bovine trypsin; settings: BAPNA substrate, pH 8.2, 0.05 M Tris-HCl, 0.02 M CaCl2, 37 °C, double reciprocal and Dixon plot, mean and standard error of two biological replicates
Description: as §3

[14] = tested on: B. cereus; assay: Propidium iodide (PI) uptake assay; type: cell-based, Bacillus cereus; settings: peptides at 2X MIC, Fig. 4e; three biological replicates
Description: B. cereus and M. luteus were grown in MH broth to logarithmic phase of growth and then diluted to OD600 ~ 0.25. Serial dilutions of the antimicrobial peptides (final concentrations, 0–100 μg/mL) were added to the wells of a black-walled microplate. Hundred microliters of the bacterial suspension containing PI (final concentration, 10 μM) was added to the wells. The emitted fluorescence was measured at excitation and emission wavelengths of 585 and 620 nm, respectively, for 2 h using a multimode plate reader (Varioskan Flash, Thermo Scientific, USA). The percentage of membrane permeabilization was calculated as the percent of fluorescent intensity of peptide-treated samples with respect to fluorescence intensity of PI-loaded, peptide untreated samples. PI uptake assays were performed as three independent experiments in triplicates.

[15] = microdilution broth, MH broth, 5 × 10^5 CFU/mL, 37 °C, 5–6 h, resazurin
[16] = microdilution broth (CLSI, modified), Mueller-Hinton broth, 5 × 10^5 CFU/mL, 37 °C, 7–8 h, resazurin colour change, three independent experiments in triplicates

For `CC[C@H](C)[C@H](NC(=O)[C@@H](NC(=O)[C@@H](N)CO)C(C)C)C(=O)N[C@@H](Cc1ccccc1)C(=O)NCC(=O)N[C@H]1CSSC[C@@H](C(=O)N[C@@H](Cc2ccccc2)C(=O)N[C@H](C(=O)NCC(=O)N[C@@H](Cc2ccccc2)C(=O)N[C@@H](CCCCN)C(=O)O)C(C)C)NC(=O)[C@H]([C@@H](C)CC)NC(=O)[C@@H]2CCCN2C(=O)[C@@H]2CCCN2C(=O)[C@H]([C@@H](C)CC)NC(=O)[C@H](CO)NC(=O)[C@H](CCCCN)NC(=O)[C@H]([C@@H](C)O)NC1=O` [HSEP2] (H-SVIFGCTKSIPPICFVGFK-OH; disulfide 6-14), the cell viability ([1]; peptide concentration 200 µg/mL) was > 70%, the cell viability ([1]; peptide concentration range 0–160 µg/mL, three biological replicates) was > 80% and the Ki [2] was 580 nM. The “MIC Staphylococcus aureus” value [3, 15] was >150 µg/mL, the “MIC Escherichia coli” value [4, 15] was 150 µg/mL (≈ 73.5 µM) and the “MIC (µg/mL) M. luteus” value [5, 16] was 6.25 µg/mL (≈ 3.06 µM). The “MIC Bacillus cereus” value [6, 15] was 75 µg/mL (≈ 36.7 µM), the “MIC Salmonella typhimurium” value [7, 15] was >150 µg/mL and the “MIC Pectobacterium carotovorum” value [8, 15] was 150 µg/mL (≈ 73.5 µM). For the same compound, the “MIC Listeria monocytogenes” value [9, 15] was >150 µg/mL and the hemolytic activity [10] was < 5%.

`CC[C@H](C)[C@H](NC(=O)[C@@H](NC(=O)[C@H](CO)NC(=O)[C@@H](N)CCCNC(=N)N)C(C)C)C(=O)N[C@@H](Cc1ccccc1)C(=O)NCC(=O)N[C@H]1CSSC[C@@H](C(=O)N[C@@H](Cc2ccccc2)C(=O)N[C@H](C(=O)NCC(=O)N[C@@H](Cc2ccccc2)C(=O)N[C@@H](CCCCN)C(=O)O)C(C)C)NC(=O)[C@H]([C@@H](C)CC)NC(=O)[C@@H]2CCCN2C(=O)[C@@H]2CCCN2C(=O)[C@H]([C@@H](C)CC)NC(=O)[C@H](CO)NC(=O)[C@H](CCCCN)NC(=O)[C@H]([C@@H](C)O)NC1=O` [HSEP3] (H-RSVIFGCTKSIPPICFVGFK-OH; disulfide 7-15) was tested, and the “Inhibition of B. cereus spore germination (MIC)” value [11] was 12.5 µg/mL, the “Effect of steam heat on antibacterial activity (in complex media), MIC” value ([12]; autoclaved at 121 °C for 20 min, LB media) was 50 µg/mL and the “Effect of steam heat on antibacterial activity (in MH media), MIC” value ([12]; autoclaved at 121 °C for 20 min, MH media) was 12.5 µg/mL. The “Effect of dry heat on antibacterial activity, MIC” value ([12]; heated at 95 °C for 30 min) was 12.5 µg/mL, the Ki [2] was 200 nM and the “MIC Staphylococcus aureus” value [3, 15] was 150 µg/mL (≈ 68.3 µM). The “MIC Escherichia coli” value [4, 15] was 150 µg/mL (≈ 68.3 µM), the “MIC (µg/mL) M. luteus” value [5, 16] was 1.25 µg/mL (≈ 0.569 µM) and the “MIC Bacillus cereus” value [6, 15] was 12.5 µg/mL (≈ 5.69 µM). The “MIC Salmonella typhimurium” value [7, 15] was 85 µg/mL (≈ 38.7 µM), the “MIC Pectobacterium carotovorum” value [8, 15] was 50 µg/mL (≈ 22.8 µM) and the “MIC Listeria monocytogenes” value [9, 15] was 50 µg/mL (≈ 22.8 µM). For the same compound, the hemolytic activity [10] was < 5%.

With `CC[C@H](C)[C@H](NC(=O)[C@@H](NC(=O)[C@@H](N)CO)C(C)C)C(=O)N[C@@H](Cc1ccccc1)C(=O)NCC(=O)N[C@H]1CSSC[C@@H](C(=O)N[C@@H](Cc2ccccc2)C(=O)N[C@H](C(=O)NCC(=O)N[C@@H](Cc2ccccc2)C(=O)N[C@@H](CCCCN)C(=O)O)C(C)C)NC(=O)[C@H]([C@@H](C)CC)NC(=O)[C@@H]2CCCN2C(=O)[C@@H]2CCCN2C(=O)[C@H]([C@@H](C)CC)NC(=O)[C@H](CO)NC(=O)[C@H]([C@@H](C)O)NC1=O` [HSEP2-∆K8] (H-SVIFGCTSIPPICFVGFK-OH; disulfide 6-13; N-terminus and C-terminus assumed) the “Ki (M) against bovine trypsin” value ([13]; listed as HSEP2-ΔK8) was “failed to show any trypsin inhibition”, the “PI uptake fluorescence intensity of treated bacterial cells” value [14] was “minimal fluorescence intensity” and the “MIC (µg/mL) M. luteus” value ([5]; microdilution broth (CLSI, modified), Mueller-Hinton broth, 5 × 10^5 CFU/mL, 37 °C, 7–8 h, resazurin colour change, three independent experiments in triplicates, listed as HSEP2-ΔK8) was “did not show any antibacterial activity”.

With `CC[C@H](C)[C@H](NC(=O)[C@@H](NC(=O)[C@H](CO)NC(=O)[C@@H](N)CCCNC(=N)N)C(C)C)C(=O)N[C@@H](Cc1ccccc1)C(=O)NCC(=O)N[C@H]1CSSC[C@@H](C(=O)N[C@@H](Cc2ccccc2)C(=O)N[C@H](C(=O)NCC(=O)N[C@@H](Cc2ccccc2)C(=O)N[C@@H](CCCCN)C(=O)O)C(C)C)NC(=O)[C@H](Cc2ccccc2)NC(=O)[C@H](CCCNC(=N)N)NC(=O)[C@H](CCCNC(=N)N)NC(=O)[C@H](Cc2ccc(O)cc2)NC1=O` [HSEP3-∆TL,CL^+] (H-RSVIFGCYRRFCFVGFK-OH; disulfide 7-12) the “Ki (M) against bovine trypsin” value [13] was “did not show any anti-trypsin activity”, the “MIC Staphylococcus aureus” value ([3]; ATCC12900) was >150 µg/mL and the “MIC Escherichia coli” value ([4]; ATCC11775) was >150 µg/mL. For the same compound, the “MIC (µg/mL) M. luteus” value ([5]; ATCC4698) was 3.125 µg/mL (≈ 1.5 µM), the “MIC Bacillus cereus” value ([6]; ATCC11778) was >150 µg/mL and the “MIC Salmonella typhimurium” value ([7]; ATCC9844) was >150 µg/mL. The “MIC Pectobacterium carotovorum” value [8] was >150 µg/mL and the “MIC Listeria monocytogenes” value ([9]; ATCC13932) was >150 µg/mL.
